Tests used:
HIV-1 = experiment: Study 202 Phase 2b, virologic response (HIV-1 RNA <50 copies/mL, FDA Snapshot), with FTC/TDF; settings: for subjects with virologic success (HIV-1 RNA <50 copies/mL): EFV
Description: (§1) Subjects with a history of HIV-2, hepatitis B and/or C, cirrhosis of the liver or any known active or chronic active liver disease were excluded from the study.
The primary efficacy endpoint was virologic response at Week 24, defined as HIV-1 RNA <50 copies/mL using the FDA Snapshot Algorithm.

[1] = Description: as §1
Most AEs were mild or moderate (Grade 1 or Grade 2). […] None of the Grade ≥3 AEs (preferred terms) were reported in more than 1 subject. Table 28 provides an overview of deaths, SAES, AEs, AEs by severity, AEs related to study medication, and AE leading to discontinuation.

[2] = Study 202 ECG abnormalities; type: in vivo, human; settings: All CVC (N = 115); EFV (N = 28), through Week 48

O=C1Nc2ccc(Cl)cc2[C@@](C#CC2CC2)(C(F)(F)F)O1 [EFV, efavirenz, reference compound]
subjects who prematurely discontinued the study (HIV-1; EFV arm): 39%
subjects with virologic success (HIV-1 RNA <50 copies/mL) (HIV-1; Week 24): 71%
subjects with virologic success (HIV-1 RNA <50 copies/mL) (HIV-1; Week 48): 50%
Deaths ([1]; All CVC (N = 115), EFV (N = 28)): 0 n
SAE: Suicidal ideation ([1]; All CVC (N = 115), EFV (N = 28), through Week 48): 1 n
Grade 3 or 4 AE: Suicidal ideation ([1]; All CVC (N = 115), EFV (N = 28; Grade 4 event)): 1 n
AE leading to discontinuation: Abnormal dreams ([1]; human, in vivo, 48 week): 1 n
AE leading to discontinuation: Aggression ([1]; human, in vivo, 48 week): 0 n
AE leading to discontinuation: Anxiety ([1]; human, in vivo, 48 week): 1 n
AE leading to discontinuation: Depression ([1]; human, in vivo, 48 week): 1 n
AE leading to discontinuation: Dermatitis allergic ([1]; human, in vivo, 48 week): 1 n
AE leading to discontinuation: Ear and labyrinth disorders ([1]; human, in vivo, 48 week): 1 n
AE leading to discontinuation: Insomnia ([1]; human, in vivo, 48 week): 3 n
AE leading to discontinuation: Psychiatric disorders ([1]; human, in vivo, 48 week): 3 n
AE leading to discontinuation: Rash ([1]; human, in vivo, 48 week): 1 n
AE leading to discontinuation: Skin and subcutaneous tissue disorders ([1]; human, in vivo, 48 week): 2 n
AE leading to discontinuation: Tachyphrenia ([1]; human, in vivo, 48 week): 1 n
AE leading to discontinuation: Thinking abnormal ([1]; human, in vivo, 48 week): 0 n
AE leading to discontinuation: Tinnitus ([1]; human, in vivo, 48 week): 1 n
Depression, % ([1]; human, in vivo, 48 week): (11%)
Diarrhoea, % ([1]; human, in vivo, 48 week): (11%)
Fatigue, % ([1]; human, in vivo, 48 week): (4%)
Nausea, % ([1]; human, in vivo, 48 week): (21%)
Rash, % ([1]; human, in vivo, 48 week): (18%)
Subjects with AEs leading to discontinuation of study medication ([1]; human, in vivo, 48 week): 6 n
Subjects with AEs related to study medication ([1]; human, in vivo, 48 week): 20 n
Subjects with AEs, by worst grade severity: Grade 1 ([1]; human, in vivo, 48 week): 10 n
Subjects with AEs, by worst grade severity: Grade 2 ([1]; human, in vivo, 48 week): 13 n
Subjects with AEs, by worst grade severity: Grade 3 ([1]; human, in vivo, 48 week): 3 n
Subjects with AEs, by worst grade severity: Grade 4 ([1]; human, in vivo, 48 week): 0 n
Syphilis, % ([1]; human, in vivo, 48 week): (11%)
Upper respiratory tract infection, % ([1]; human, in vivo, 48 week): (7%)
AE leading to discontinuation: Disturbance in attention ([1]; human, in vivo, 48 weeks): 1 n
AE leading to discontinuation: Dizziness ([1]; human, in vivo, 48 weeks): 2 n
AE leading to discontinuation: Eye disorders ([1]; human, in vivo, 48 weeks): 1 n
AE leading to discontinuation: Gastrointestinal disorders ([1]; human, in vivo, 48 weeks): 1 n
AE leading to discontinuation: General disorders and administration site conditions ([1]; human, in vivo, 48 weeks): 0 n
AE leading to discontinuation: Hypoaesthesia ([1]; human, in vivo, 48 weeks): 1 n
AE leading to discontinuation: Malaise ([1]; human, in vivo, 48 weeks): 0 n
AE leading to discontinuation: Musculoskeletal and connective tissue disorders ([1]; human, in vivo, 48 weeks): 1 n
AE leading to discontinuation: Musculoskeletal discomfort ([1]; human, in vivo, 48 weeks): 1 n
AE leading to discontinuation: Nausea ([1]; human, in vivo, 48 weeks): 1 n
AE leading to discontinuation: Nervous system disorders ([1]; human, in vivo, 48 weeks): 4 n
AE leading to discontinuation: Photophobia ([1]; human, in vivo, 48 weeks): 1 n
AEs leading to discontinuation of study medication, % ([1]; human, in vivo, 48 weeks): 21%
AEs leading to discontinuation of study medication, subjects ([1]; human, in vivo, 48 weeks): 6 subjects
Abnormal dreams, % ([1]; human, in vivo, 48 weeks): (21%)
Any AE leading to discontinuation of study drug ([1]; human, in vivo, 48 weeks): 6 n
Any Grade 3 AE ([1]; human, in vivo, 48 weeks): 3 n
Any Grade 4 AE ([1]; human, in vivo, 48 weeks): 1 n
Any SAE ([1]; human, in vivo, 48 weeks): 1 n
Dizziness, % ([1]; human, in vivo, 48 weeks): (29%)
Grade 3 or 4 AE: Abdominal pain ([1]; human, in vivo, 48 weeks): 0 n
Grade 3 or 4 AE: Blindness unilateral ([1]; human, in vivo, 48 weeks): 0 n
Grade 3 or 4 AE: Blood creatine phosphokinase increased ([1]; human, in vivo, 48 weeks): 0 n
Grade 3 or 4 AE: Cardiac disorders ([1]; human, in vivo, 48 weeks): 0 n
Grade 3 or 4 AE: Corneal infection ([1]; human, in vivo, 48 weeks): 0 n
Grade 3 or 4 AE: Depression ([1]; human, in vivo, 48 weeks): 1 n
Grade 3 or 4 AE: Dermatitis allergic ([1]; human, in vivo, 48 weeks): 1 n
Grade 3 or 4 AE: Ear and labyrinth disorders ([1]; human, in vivo, 48 weeks): 1 n
Grade 3 or 4 AE: Eye disorders ([1]; human, in vivo, 48 weeks): 0 n
Grade 3 or 4 AE: Gastrointestinal disorders ([1]; human, in vivo, 48 weeks): 0 n
Grade 3 or 4 AE: General disorders and administration site conditions ([1]; human, in vivo, 48 weeks): 0 n
Grade 3 or 4 AE: Infections and infestations ([1]; human, in vivo, 48 weeks): 0 n
Grade 3 or 4 AE: Investigations ([1]; human, in vivo, 48 weeks): 1 n
Grade 3 or 4 AE: Palpitations ([1]; human, in vivo, 48 weeks): 0 n
Grade 3 or 4 AE: Psychiatric disorders ([1]; human, in vivo, 48 weeks): 1 n
Grade 3 or 4 AE: Pyrexia ([1]; human, in vivo, 48 weeks): 0 n
Grade 3 or 4 AE: Skin and subcutaneous tissue disorders ([1]; human, in vivo, 48 weeks): 1 n
Grade 3 or 4 AE: Stress ([1]; human, in vivo, 48 weeks): 0 n
Grade 3 or 4 AE: Tinnitus ([1]; human, in vivo, 48 weeks): 1 n
Grade 3 or 4 AE: Weight decreased ([1]; human, in vivo, 48 weeks): 1 n
Insomnia, % ([1]; human, in vivo, 48 weeks): (14%)
Lymphadenopathy, % ([1]; human, in vivo, 48 weeks): (14%)
Nasopharyngitis, % ([1]; human, in vivo, 48 weeks): (4%)
SAE: Blindness unilateral ([1]; human, in vivo, 48 weeks): 0 n
SAE: Corneal infection ([1]; human, in vivo, 48 weeks): 0 n
SAE: Depression ([1]; human, in vivo, 48 weeks): 1 n
SAE: Eye disorders ([1]; human, in vivo, 48 weeks): 0 n
SAE: Gastroenteritis ([1]; human, in vivo, 48 weeks): 0 n
SAE: Infections and infestations ([1]; human, in vivo, 48 weeks): 0 n
SAE: Psychiatric disorders ([1]; human, in vivo, 48 weeks): 1 n
Subjects with serious AEs ([1]; human, in vivo, 48 weeks): 1 n
Subjects with ≥1 AE ([1]; human, in vivo, 48 weeks): 27 n
HR Abnormally high (120 bpm ≤ abnormally high) [2]: 0 n (%)
HR Abnormally low (≤ 50 bpm) [2]: 0 n (%)
PR Abnormally high (210 ms ≤ abnormally high) [2]: 1 (4%) n (%)
QRS Abnormally high (120 ms ≤ abnormally high) [2]: 0 n (%)
QRS Abnormally low (≤ 50 ms) [2]: 0 n (%)
QTcB interval Borderline (450 ms ≤ borderline ≤ 480 ms) [2]: 3 (11%) n (%)
QTcB interval Increase by >30-60 ms [2]: 4 (14%) n (%)
QTcB interval Increase by >60 ms [2]: 0 n (%)
QTcB interval Pathologically prolonged (> 500 ms) [2]: 0 n (%)
QTcB interval Prolonged (480 ms < prolonged ≤ 500 ms) [2]: 0 n (%)
QTcF interval Borderline (450 ms ≤ borderline ≤ 480 ms) [2]: 0 n (%)
QTcF interval Increase by >30-60 ms [2]: 4 (14%) n (%)
QTcF interval Increase by >60 ms [2]: 0 n (%)
QTcF interval Pathologically prolonged (> 500 ms) [2]: 0 n (%)
QTcF interval Prolonged (480 ms < prolonged ≤ 500 ms) [2]: 0 n (%)
